Values of other authors, collected in patent EP4209496A1, “NOVEL FLUORESCENT BODIPY COMPOUNDS DISPLAYING ABSORPTION AND EMISSION IN THE NIR REGION” (Université de Strasbourg, priority 2022, dated 2023).
Read-outs that look alike come from different tables or passages of the source.

| λem (solvent: biological serum) | φf (solvent: biological serum) | λem (solvent: PBS buffer) | φf (solvent: PBS buffer) | SMILES |
| --- | --- | --- | --- | --- |
| 789 nm | 12% |  |  | CC1(C)C(=CC=C2CCCC(C=CC3=[N+](CCCCCC(=O)[O-])c4ccc(S(=O)(=O)[O-])cc4C3(C)C)=C2Oc2ccc(S(=O)(=O)[O-])cc2)N(CCCCS(=O)(=O)[O-])c2ccc(S(=O)(=O)[O-])cc21.[Na+].[Na+].[Na+].[Na+] [IRDye800CW] |
| 686 nm | 10% |  |  | CN(C)c1ccc2nc3ccc(=[N+](C)C)cc-3sc2c1 [Methylene blue] |
|  |  | 774 nm | 28% | CCN1C(=CC=CC=CC=CC2=[N+](CCCCCC(=O)O)c3ccc(S(=O)(=O)O)cc3C2(C)C)C(C)(C)c2cc(S(=O)(=O)[O-])ccc21 [Cy7] |
| 822 nm | 9% |  |  | CC1(C)C(/C=C/C=C/C=C/C=C2\N(CCCCS(=O)(=O)O)c3ccc4ccccc4c3C2(C)C)=[N+](CCCCS(=O)(=O)[O-])c2ccc3ccccc3c21 [Indocyanine green] |
